Reference: patent US20150105252A1, “SUBSTITUTED PYRAZOLES AS HERBICIDES” (E I DU PONT DE NEMOURS AND COMPANY, priority 2013, published 2015)

Tests used:
[1] = test system: barnyardgrass; test: Test A preemergence; type: in vivo, Echinochloa crus-galli; details: Preemergence, 1000 g ai/ha; 0 to 100 scale, 0 no effect, 100 complete control
From the text: (§1) Seeds of plant species selected from barnyardgrass (Echinochloa crus-galli), kochia (Kochia scoparia), common ragweed (Ambrosia elation), Italian ryegrass (Lolium multiflorum), crabgrass, large (large crabgrass, Digitaria sanguinalis), foxtail, giant (giant foxtail, Setaria faberii), morningglory (Ipomoea spp.), pigweed (redroot pigweed, Amaranthus retroflexus), velvetleaf (Abutilon theophrasti), wheat (Triticum aestivum), and corn (Zea mays) were planted into a blend of loam soil and sand and treated preemergence with a directed soil spray using test chemicals formulated in a non-phytotoxic solvent mixture which included a surfactant.
(§2) At the same time, plants selected from these crop and weed species and also blackgrass (Alopecurus myosuroides), and galium (catchweed bedstraw, Galium aparine) were planted in pots containing the same blend of loam soil and sand and treated with postemergence applications of test chemicals formulated in the same manner. Plants ranged in height from 2 to 10 cm and were in the one- to two-leaf stage for the postemergence treatment. Treated plants and untreated controls were maintained in a greenhouse for approximately 10 days, after which time all treated plants were compared to untreated controls and visually evaluated for injury. Plant response ratings, summarized in Table A, are based on a 0 to 100 scale where 0 is no effect and 100 is complete control. A dash (-) response means no test result.

[2] = test system: crabgrass, large; test: Test A preemergence; type: in vivo, Digitaria sanguinalis; details: Preemergence, 1000 g ai/ha; 0 to 100 scale, 0 no effect, 100 complete control
Method in brief: (§3)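 After sowing in a sand–loam mix, pots received compound preemergence by directed soil spray, or postemergence once plants reached the one- to two-leaf stage (2–10 cm). Formulation contained surfactant in a non-phytotoxic solvent. Injury was scored visually after ~10 greenhouse days, 0–100 scale.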

[3] = test system: foxtail, giant; test: Test A preemergence; type: in vivo, Setaria faberii; details: Preemergence, 1000 g ai/ha; 0 to 100 scale, 0 no effect, 100 complete control
Method in brief: as §3

[4] = test system: morningglory; test: Test A preemergence; type: in vivo, Ipomoea spp.; details: Preemergence, 1000 g ai/ha; 0 to 100 scale, 0 no effect, 100 complete control
From the text: as §1, §2

[5] = test system: pigweed; test: Test A preemergence; type: in vivo, Amaranthus retroflexus; details: Preemergence, 1000 g ai/ha; 0 to 100 scale, 0 no effect, 100 complete control
From the text: as §1, §2

[6] = test system: velvetleaf; test: Test A preemergence; type: in vivo, Abutilon theophrasti; details: Preemergence, 1000 g ai/ha; 0 to 100 scale, 0 no effect, 100 complete control
Method in brief: as §3

[7] = test system: wheat; test: Test A preemergence; type: in vivo, Triticum aestivum; details: Preemergence, 1000 g ai/ha; 0 to 100 scale, 0 no effect, 100 complete control
From the text: as §1, §2

[8] = test system: corn; test: Test A preemergence; type: in vivo, Zea mays; details: Preemergence, 1000 g ai/ha; 0 to 100 scale, 0 no effect, 100 complete control
From the text: as §1, §2

[9] = test system: barnyardgrass; test: Test A postemergence; type: in vivo, Echinochloa crus-galli; details: Postemergence, 1000 g ai/ha; visual rating after approx. 10 days, 0 to 100 scale (0 no effect, 100 complete control)
Method in brief: as §3

[10] = test system: crabgrass, large; test: Test A postemergence; type: in vivo, Digitaria sanguinalis; details: Postemergence, 1000 g ai/ha; visual rating after approx. 10 days, 0 to 100 scale (0 no effect, 100 complete control)
From the text: as §1, §2

[11] = test system: foxtail, giant; test: Test A postemergence; type: in vivo, Setaria faberii; details: Postemergence, 1000 g ai/ha; visual rating after approx. 10 days, 0 to 100 scale (0 no effect, 100 complete control)
Method in brief: as §3

[12] = test system: morningglory; test: Test A postemergence; type: in vivo, Ipomoea spp.; details: Postemergence, 1000 g ai/ha; visual rating after approx. 10 days, 0 to 100 scale (0 no effect, 100 complete control)
From the text: as §1, §2

[13] = test system: pigweed; test: Test A postemergence; type: in vivo, Amaranthus retroflexus; details: Postemergence, 1000 g ai/ha; visual rating after approx. 10 days, 0 to 100 scale (0 no effect, 100 complete control)
From the text: as §1, §2

[14] = test system: velvetleaf; test: Test A postemergence; type: in vivo, Abutilon theophrasti; details: Postemergence, 1000 g ai/ha; visual rating after approx. 10 days, 0 to 100 scale (0 no effect, 100 complete control)
From the text: as §1, §2

[15] = test system: wheat; test: Test A postemergence; type: in vivo, Triticum aestivum; details: Postemergence, 1000 g ai/ha; visual rating after approx. 10 days, 0 to 100 scale (0 no effect, 100 complete control)
Method in brief: as §3

[16] = test system: corn; test: Test A postemergence; type: in vivo, Zea mays; details: Postemergence, 1000 g ai/ha; visual rating after approx. 10 days, 0 to 100 scale (0 no effect, 100 complete control)
Method in brief: as §3

Row | Compound | Barnyardgrass plant response rating [1] | Crabgrass, Large plant response rating [2] | Foxtail, Giant plant response rating [3] | Morningglory plant response rating [4] | Pigweed plant response rating [5] | Velvetleaf plant response rating [6] | Wheat plant response rating [7] | Corn plant response rating [8] | Barnyardgrass plant response rating [9] | Crabgrass, Large plant response rating [10] | Foxtail, Giant plant response rating [11] | Morningglory plant response rating [12] | Pigweed plant response rating [13] | Velvetleaf plant response rating [14] | Wheat plant response rating [15] | Corn plant response rating [16]
1 | CCc1cc(C(=O)NCC(F)(F)F)nn1Cc1cccc(C(F)(F)F)c1 [Compound 18] | 80 | 100 | 100 | 70 | 90 | 100 | 40 | 30 | 50 | 90 | 90 | 100 | 90 | 100 | 40 | 70
2 | CCNC(=O)c1cc(CC)n(Cc2cccc(OC(F)(F)F)c2)n1 [Compound 19] | 90 | 100 | 100 | 90 | 100 | 80 | 10 | 30 | 60 | 80 | 70 | 90 | 100 | 100 | 20 | 20
3 | CSc1cc(C(=O)NC2CC2)nn1Cc1cccc(C(F)(F)F)c1 [Compound 22] | 0 | 10 | 20 | 0 | 0 | 0 | 0 | 0 | 30 | 50 | 40 | 100 | 60 | 80 | 20 | 10
4 | CCNC(=O)c1cc(SC)n(Cc2cccc(C(F)(F)F)c2)n1 [Compound 23] | 0 | 0 | 0 | 0 | 0 | 0 | 0 | 0 | 10 | 30 | 30 | 100 | 40 | 30 | 0 | 20
5 | C=CCNC(=O)c1cc(CC)n(Cc2cccc(C(F)(F)F)c2)n1 [Compound 44] | 10 | 50 | 50 | 20 | 10 | 0 | 0 | 20 | 10 | 20 | 50 | 70 | 50 | 40 | 20 | 20
6 | CCc1cc(C(=O)NC)nn1Cc1cccc(C(F)(F)F)c1 [Compound 45] | 10 | 20 | 20 | 10 | 10 | 0 | 0 | 0 | 10 | 40 | 70 | 90 | 60 | 30 | 10 | 20
7 | CCc1cc(C(=O)NCC(C)(C)C)nn1Cc1cccc(C(F)(F)F)c1 [Compound 46] | 10 | 10 | 20 | 20 | 0 | 0 | 0 | 0 | 10 | 30 | 60 | 70 | 40 | 70 | 20 | 20
8 | CCc1cc(C(=O)NCCOC)nn1Cc1cccc(C(F)(F)F)c1 [Compound 48] | 10 | 10 | 10 | 20 | 0 | 0 | 0 | 0 | 10 | 10 | 20 | 50 | 10 | 10 | 0 | 30
9 | CCc1cc(C(=O)NCC(C)C)nn1Cc1cccc(C(F)(F)F)c1 [Compound 49] | 30 | 90 | 100 | 30 | 50 | 0 | 0 | 0 | 20 | 30 | 100 | 100 | 50 | 50 | 30 | 30
10 | CCCCNC(=O)c1cc(CC)n(Cc2cccc(C(F)(F)F)c2)n1 [Compound 52] | 10 | 50 | 70 | 30 | 30 | 10 | 0 | 0 | 20 | 30 | 30 | 40 | 50 | 40 | 30 | 30
